According to EP0523013B1, “Use of benzimidazoline-2-oxo-1-carboxylic acid derivatives in the treatment of organic mental diseases” (BOEHRINGER INGELHEIM ITALIA S.p.A., priority 1991, dated 1993):
Counter-ions that a name gives are not always drawn. Marks after values point to notes of the source that are not given here.

System: scopolamine-induced impairment of passive avoidance response
Assay: passive avoidance test, scopolamine-induced impairment
Assay type: in vivo, Male Sprague Dawley rats
Experimental: Male Sprague Dawley rats weighing 175-200 g were used. The animals were kept in a regulated environment (20 ± 1°C, 50-55% humidity and 12 hours light-dark cycle, light on at 7.00 a.m.) and maintained with standard pellet diet. The apparatus used for the passive avoidance test was composed of a dark compartment (30x30x30 cm) with a grid floor and a compartment (30x30x30 cm) illuminated from above by a 20 W daylight lamp, the 2 compartments being separated by a guillotine-type door (10x8 cm). Scrambled electric shocks were delivered to the grid floor by an isolated stimulator.
Rats were divided in groups of 10 animals. • a) Training: each rat was placed gently in the lighted compartment and 10 sec later the door was opened. As soon as the rat had moved into the dark compartment and the door had been shut, a 1.6 mA foot-shock was applied for 1 sec. The rat was immediately removed from the apparatus and returned to the home cage. • b) Retention: the retention test was carried out 24 hours later by an observer unaware of the given treatment. Each rat was placed into the lighted compartment again and the step-through latency was recorded. The test is stopped when the rat enters the dark compartment or when it fails to do so in […] 180 sec.

[1] = step-through latency in retention test 24 hours after training, test compound 0.03 mg/kg i.p. 15 min before scopolamine 0.75 mg/kg i.p., which was given 30 min before training, mean ± S.E.M, 10 animals, cut-off 180 sec

In the case of CN1[C@@H]2CC[C@H]1C[C@@H](NC(=O)n1c(=O)[nH]c3ccccc31)C2 [Compound 1, N-(endo-8-methyl-8-azabicyclo[3.2.1]oct-3-yl)-2,3-dihydro-2-oxo-1H-benzimidazole-1-carboxamide], the “LATENCY” value (step-through latency in retention test 24 hours after training, test compound 0.01 mg/kg i.p. 15 min before scopolamine 0.75 mg/kg i.p., which was given 30 min before training, mean ± S.E.M, 10 animals, cut-off 180 sec) is reported as 136 ± 16.0 s and the “LATENCY” value [1] is reported as 109 ± 17.0 s.
CCn1c(=O)n(C(=O)N[C@H]2C[C@H]3CC[C@@H](C2)N3C)c2ccccc21 [Compound 5, N-(endo-8-methyl-8-azabicyclo[3.2.1]oct.-3-yl)-2,3-dihydro-3-ethyl-2-oxo-1H-benzimidazole-1-carboxamide] was tested, and the “LATENCY” value [1] was 113 ± 17.0 s.
In the case of CC(C)n1c(=O)n(C(=O)N[C@H]2C[C@H]3CC[C@@H](C2)N3C)c2ccccc21 [Compound 6, N-(endo-8-methyl-8-azabicyclo[3.2.1]oct.-3-yl)-2,3-dihydro-3-(1-methyl)ethyl-2-oxo-1H-benzimidazole-1-carboxamide, hydrochloric acid salt], the “LATENCY (SEC)” value [1] is reported as 140 + 16 ** SEC.
For CN1[C@@H]2C[C@@H](OC(=O)[C@H](CO)c3ccccc3)C[C@H]1[C@@H]1O[C@@H]12 [Scopolamine, scopolamine, reference compound], the “LATENCY” value (rat, in vivo, ip, 0.75 mg/kg) was 66 ± 18.7 s.
